Test results from patent US11607423B2, “Combination of a cannabinoid and a chemotheraopeutic agent for the treatment of breast cancer” (Akos Biosciences, Inc., priority 2018, dated 2023).

How the values were obtained:
[1] = test system: breast cancer cell line MCF7; experiment: MCF7 cell viability by cell counting with trypan blue after 48 h; format: cell-based; settings: CBD 0.1, 1 or 10 μM, FIG. 1
Description: The breast cancer cell line MCF7, growing exponentially, was reset at a concentration of 1×10^4/ml and allowed to adhere overnight.

[2] = test system: pERK; experiment: pERK level by western blotting in MCF7 cells, relative to GAPDH loading control; format: cell-based; settings: CBD 100 nM, 1 μM or 10 μM, 48 h, band density relative to GAPDH, 5 separate experiments, FIG. 2
Description: The breast cancer cell line MCF7, growing exponentially, was reset at a concentration of 1×10^4/ml and allowed to adhere overnight. Cannabidiol (CBD) was added at 100 nM, 1 μM, or 10 μM, and cells were harvested for standard western blotting techniques after 48 h. Immunoprobing was performed using anti-pERK antibodies, and the densities of each band determined. These values were then expressed relative to a GAPDH loading control.

C=C(C)[C@@H]1CCC(C)=C[C@H]1c1c(O)cc(CCCCC)cc1O [CBD, cannabidiol]
viability of cancer cells [1]: unaffected
pERK relative to controls [2]: increased
